In patent US9018238B2, “Inhibitor of casein kinase 1δ and casein kinase 1ε” (Pharmadesign, Inc., priority 2009, dated 2015):

Tests used:
[1] = molecular target: T1, human recombinant casein kinase 1ε (Homo sapiens, UniProt P49674); experiment: Casein kinase 1ε inhibition assay (Z'-LYTE Ser/Thr 11 Peptide); format: biochemical; details: 0.3 μg/ml compound, 0.5 μg/ml enzyme, 1.0 μM peptide, 20 μM ATP; 15 min pre-reaction, 2 hours; read-out: Casein kinase 1ε inhibitory rate
T1 construct: purchased INVITROGEN PV3500
Method: The activity of the present compound to inhibit casein kinase 1δ and casein kinase 1ε was measured using human recombinant casein kinase 1δ (INVITROGEN; Cat No. PV3665) or casein kinase 1ε (INVITROGEN; Cat No. PV3500) as an enzyme source, and using Z′-LYTE Ser/Thr 11 Peptide (INVITROGEN; Cat No. PV3671) as a phosphorylation substrate. The compositions (final concentrations) applied during the inhibitory activity measurement assays are as follows. […]
(§1) The present compound had previously been reacted with the enzyme at room temperature for 15 minutes. Two hours after completion of the reaction, the remaining phosphorylation activity was measured using Z′-LYTE Kinase Assay Kit-Ser/Thr 11 Peptide (INVITROGEN; Cat No. PV3670).
(§2) The inhibitory rate of the present compound was calculated with respect to the phosphorylation activity of each of casein kinase 1δ and casein kinase 1ε in a case in which no such compounds were added. Tables 1 to 4 show the inhibitory rate (%) of each compound.

[2] = molecular target: T2, human recombinant casein kinase 1δ (Homo sapiens, UniProt P48730); experiment: Casein kinase 1δ inhibition assay (Z'-LYTE Ser/Thr 11 Peptide); format: biochemical; details: 0.3 μg/ml compound, 3.0 μg/ml enzyme, 1.0 μM peptide, 20 μM ATP; 15 min pre-reaction, 2 hours; read-out: Casein kinase 1δ inhibitory rate
T2 construct: purchased INVITROGEN PV3665
Method: The activity of the present compound to inhibit casein kinase 1δ and casein kinase 1ε was measured using human recombinant casein kinase 1δ (INVITROGEN; Cat No. PV3665) or casein kinase 1ε (INVITROGEN; Cat No. PV3500) as an enzyme source, and using Z′-LYTE Ser/Thr 11 Peptide (INVITROGEN; Cat No. PV3671) as a phosphorylation substrate. The compositions (final concentrations) applied during the inhibitory activity measurement assays are as follows.
Assay of Casein Kinase 1δ
3.0 μg/ml casein kinase 1δ, 0.3 μg/ml the present compound, 1.0 μM peptide, 20 μM ATP, 50 mM HEPES (pH 7.4), 10 mM MgCl2, 0.01% Brij-35, and 0.5% DMSO
as §1, §2

rats = details: subcutaneous administration; cited from earlier work
[3] = system: human pancreatic cancer cell line; details: human pancreatic cancer cell line in vitro; cited from earlier work
[4] = system: human pancreatic cancer cell line transplanted into the subcutis of a mouse; details: cited from earlier work
[5] = system: N2A cells (N2A-APP695 cells); details: N2A-APP695 cells excessively expressing constitutively active casein kinase 1ε; cited from earlier work

T1 sequence (P49674 whole entry): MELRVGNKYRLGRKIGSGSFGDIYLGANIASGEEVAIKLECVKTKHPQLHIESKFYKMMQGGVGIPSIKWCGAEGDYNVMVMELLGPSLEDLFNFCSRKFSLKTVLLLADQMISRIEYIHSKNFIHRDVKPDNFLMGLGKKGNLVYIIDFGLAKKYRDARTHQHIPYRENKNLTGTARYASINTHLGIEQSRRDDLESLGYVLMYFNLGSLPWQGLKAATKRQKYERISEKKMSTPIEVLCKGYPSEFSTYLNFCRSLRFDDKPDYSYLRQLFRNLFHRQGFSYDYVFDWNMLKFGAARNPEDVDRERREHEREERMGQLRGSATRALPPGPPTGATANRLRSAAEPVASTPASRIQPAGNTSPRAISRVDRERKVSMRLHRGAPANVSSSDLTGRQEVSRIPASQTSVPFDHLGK
T2 sequence (P48730 whole entry): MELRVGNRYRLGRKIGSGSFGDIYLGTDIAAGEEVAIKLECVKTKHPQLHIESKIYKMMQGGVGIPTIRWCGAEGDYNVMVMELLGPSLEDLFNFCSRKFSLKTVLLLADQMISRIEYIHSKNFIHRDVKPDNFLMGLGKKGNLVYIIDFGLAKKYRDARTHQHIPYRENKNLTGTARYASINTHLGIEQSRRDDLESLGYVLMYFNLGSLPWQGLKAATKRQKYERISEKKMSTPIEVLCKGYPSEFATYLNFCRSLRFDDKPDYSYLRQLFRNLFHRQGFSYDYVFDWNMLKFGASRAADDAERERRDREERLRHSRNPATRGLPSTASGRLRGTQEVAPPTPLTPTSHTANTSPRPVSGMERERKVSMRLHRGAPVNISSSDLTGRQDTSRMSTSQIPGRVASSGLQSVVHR

Row | Compound | inhibition at 0.3 µg/mL [1] [%] | inhibition at 0.3 µg/mL [2] [%] | further results
1 | COc1cncc(/C=C2\N=C(c3cccs3)OC2=O)c1 [Example 2, 4-((5-Methoxy-3-pyridinyl)methylene)-2-(2-thienyl)-5(4H)-oxazolone] | 96.6 | 91.1 | 
2 | Nc1nccc(-c2c(-c3ccc(F)cc3)ncn2C2CCCCC2)n1 [PF-670462, 4-[3-cyclohexyl-5-(4-fluoro-phenyl)-3H-imidazol-4-yl]-pyrimidin-2-ylamine] |  |  | phase of circadian rhythm (rats): significantly delayed
3 | COc1cc(OC)c(C=C2C(O)=Nc3ccccc32)c(OC)c1 [IC261] |  |  | cell growth [3]: suppression of the cell growth was observed; growth of tumor cells [4]: significant effect of suppressing the growth of tumor cells; amount of Aβ40 [5]: decreased; amount of Aβ42 [5]: decreased
4 | COc1ccc(C2=N/C(=C\c3cccnc3)C(=O)O2)cc1Br [2-(3-Bromo-4-methoxyphenyl)-4-(3-pyridinylmethylene)-5-(4H)-oxazolone] | 99.4 | 94.2 | 
5 | Cn1cc(/C=C2\N=C(c3cccs3)OC2=O)cn1 [4-((1-Methyl-1H-pyrazol-4-yl)methylene)-2-(2-thienyl)-5(4H)-oxazolone] | 48.8 | 73.6 | 
6 | O=C1OC(/C=C/c2ccccc2)=NC/1=C\c1cccnc1 [2-(2-phenylethenyl)-4-(3-pyridinylmethylene)-5(4H)-oxazolone] | 83.4 | 85 | 
7 | O=C1OC(c2cccs2)=N/C1=C\c1ccc([N+](=O)[O-])c(Br)c1 [4-((3-Bromo-4-nitrophenyl)methylene)-2-(2-thienyl)-5(4H)-oxazolone] | 94.4 | 85.9 | 
8 | O=C1OC(c2cccs2)=N/C1=C\c1cncc(F)c1 [Example 3, 4-((5-Fluoro-3-pyridinyl)methylene)-2-(2-thienyl)-5(4H)-oxazolone] | 92.1 | 87.4 | 
9 | COc1ccc(/C=C2\N=C(c3cccs3)OC2=O)cc1[N+](=O)[O-] [4-((4-Methoxy-3-nitrophenyl)methylene)-2-(2-thienyl)-5(4H)-oxazolone] | 94.8 | 91 | 
10 | COc1ccc(/C=C2\N=C(c3cccs3)OC2=O)cc1 [4-((4-methoxyphenyl)methylene)-2-(2-thienyl)-5(4H)-oxazolone] | 98.6 | 96.1 | 
11 | Cc1cc(C2=N/C(=C\c3cccnc3)C(=O)O2)ccc1Br [2-(4-Bromo-3-methylphenyl)-4-(3-pyridinylmethylene)-5(4H)-oxazolone] | 97.8 | 83.2 | 
12 | O=C1OC(c2cccs2)=N/C1=C\c1cccnc1F [Example 4, 4-((2-Fluoro-3-pyridinyl)methylene)-2-(2-thienyl)-5(4H)-oxazolone] | 39.2 | 65.6 | 
13 | O=C1OC(c2cccs2)=N/C1=C\c1cc2c(cc1Cl)OCO2 [4-((6-Chloro-1,3-benzodioxol-5-yl)methylene)-2-(2-thienyl)-5(4R)-oxazolone] | 97 | 74.3 | 
14 | COc1cncc(/C=C2\N=C(c3ccc(C)s3)OC2=O)c1 [Example 1, 4-((5-Methoxy-3-pyridinyl)methylene)-2-(5-methyl-2-thienyl)-5(4H)-oxazolone] | 97.1 | 82 | 
15 | Nc1ccn([C@@H]2O[C@H](CO)[C@@H](O)C2(F)F)c(=O)n1 [gemcitabine] |  |  | growth of tumor cells [4]: significant effect of suppressing the growth of tumor cells
16 | O=C1OC(c2cccs2)=N/C1=C\c1ccc([N+](=O)[O-])c(Cl)c1 [4-((3-Chloro-4-nitrophenyl)methylene)-2-(2-thienyl)-5(4H)-oxazolone] | 97.6 | 87.6 | 
17 | O=C1OC(c2cccs2)=N/C1=C\c1cc(Cl)c2c(c1)OCCO2 [4-((8-Chloro-2,3-dihydro-1,4-benzodioxin-6-yl)methylene)-2-(2-thienyl)-5(4H)-oxazolone] | 85.8 | 76.7 | 

Further lines, with some results ahead:

Row | inhibition at 0.3 µg/mL [1] [%] | inhibition at 0.3 µg/mL [2] [%] | Compound | further results
18 | 32 | 67.9 | O=C1OC(c2cccs2)=N/C1=C\c1cocn1 [Example 13, 4-((4-Oxazoyl)methylene)-2-(2-thienyl)-5(4H)-oxazolone] | 
19 | 19.2 | 32.2 | O=C1OC(c2cccs2)=N/C1=C\c1csnn1 [Example 14, 4-((1,2,3-Thiadiazol-4-yl)methylene)-2-(2-thienyl)-5(4H)-oxazolone] | 
20 | 93.8 | 60.5 | COc1cc(/C=C2\N=C(c3cccs3)OC2=O)ccn1 [Example 9, 4-((2-Methoxy-4-pyridinyl)methylene)-2-(2-thienyl)-5(4H)-oxazolone] | 
21 | 32.8 | 55.3 | COc1ccc(/C=C2\N=C(c3cccs3)OC2=O)c(C)n1 [Example 18, 4-((6-Methoxy-2-methyl-3-pyridinyl)methylene)-2-(2-thienyl)-5(4H)-oxazolone] | 
22 | 95.1 | 86.8 | COC(=O)c1ccc(/C=C2\N=C(c3cccs3)OC2=O)cc1 [Methyl 4-((5-oxo-2-(2-thienyl)oxazol-4(5H)-ylidene)methyl) benzoate] | 
23 | 9 | 29 | COCc1ccc(/C=C2\N=C(c3cccs3)OC2=O)o1 [Example 12, 4-((5-Methoxymethyl-2-furanyl)methylene)-2-(2-thienyl)-5(4H)-oxazolone] | 
24 | 18.1 | 37 | Cn1cnc(/C=C2\N=C(c3cccs3)OC2=O)c1 [Example 10, 4-((1-Methyl-1H-imidazol-yl)methylene)-2-(2-thienyl)-5(4H)-oxazolone] | 
25 | 52.5 | 76.1 | COc1ccc(/C=C2\N=C(c3cccs3)OC2=O)c(Cl)n1 [Example 19, 4-((2-Chloro-6-methoxy-3-pyridinyl)methylene)-2-(2-thienyl)-5(4H)-oxazolone] | 
26 | 95.6 | 86.3 | COc1ccc(/C=C2\N=C(c3cccs3)OC2=O)cn1 [Example 5, 4-((6-Methoxy-3-pyridinyl)methylene)-2-(2-thienyl)-5(4H)-oxazolone] | 
